For this experiment, the target named is T1, integrin α 4 β 7 (Homo sapiens, UniProt P13612+P26010).
T1 construct: lymphoma cell strain RPMI-8866 of human B cells, known to express integrin α 4 β 7; endogenous in cells; host or cells: RPMI-8866 (human B cell lymphoma line)
T1 sequence (P13612 34-1032): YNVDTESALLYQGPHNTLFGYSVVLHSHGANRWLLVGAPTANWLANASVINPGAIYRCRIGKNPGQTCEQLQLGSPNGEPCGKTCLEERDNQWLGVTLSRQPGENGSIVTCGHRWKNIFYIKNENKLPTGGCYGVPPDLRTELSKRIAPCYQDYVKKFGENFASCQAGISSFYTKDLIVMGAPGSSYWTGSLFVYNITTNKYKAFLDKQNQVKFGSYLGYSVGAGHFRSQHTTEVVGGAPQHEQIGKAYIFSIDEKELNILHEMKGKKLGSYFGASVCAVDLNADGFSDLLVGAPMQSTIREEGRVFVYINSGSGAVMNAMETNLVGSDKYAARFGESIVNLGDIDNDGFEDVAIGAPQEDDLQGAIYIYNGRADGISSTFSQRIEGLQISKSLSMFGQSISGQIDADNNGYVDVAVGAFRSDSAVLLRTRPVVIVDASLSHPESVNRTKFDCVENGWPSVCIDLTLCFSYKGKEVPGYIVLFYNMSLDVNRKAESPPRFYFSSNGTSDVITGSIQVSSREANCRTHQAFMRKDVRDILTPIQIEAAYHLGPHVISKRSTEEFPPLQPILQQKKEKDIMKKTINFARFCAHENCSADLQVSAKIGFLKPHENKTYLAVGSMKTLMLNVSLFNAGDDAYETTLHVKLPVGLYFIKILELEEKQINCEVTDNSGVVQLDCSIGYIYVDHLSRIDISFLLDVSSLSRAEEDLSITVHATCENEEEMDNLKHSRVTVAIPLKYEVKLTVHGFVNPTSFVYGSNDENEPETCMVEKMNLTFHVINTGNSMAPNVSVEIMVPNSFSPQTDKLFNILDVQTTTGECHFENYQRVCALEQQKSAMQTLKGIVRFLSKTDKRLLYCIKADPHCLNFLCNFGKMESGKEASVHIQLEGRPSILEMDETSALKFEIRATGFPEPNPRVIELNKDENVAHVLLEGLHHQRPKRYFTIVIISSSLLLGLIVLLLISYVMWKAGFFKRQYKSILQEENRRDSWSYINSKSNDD
T1 sequence (P26010 20-798): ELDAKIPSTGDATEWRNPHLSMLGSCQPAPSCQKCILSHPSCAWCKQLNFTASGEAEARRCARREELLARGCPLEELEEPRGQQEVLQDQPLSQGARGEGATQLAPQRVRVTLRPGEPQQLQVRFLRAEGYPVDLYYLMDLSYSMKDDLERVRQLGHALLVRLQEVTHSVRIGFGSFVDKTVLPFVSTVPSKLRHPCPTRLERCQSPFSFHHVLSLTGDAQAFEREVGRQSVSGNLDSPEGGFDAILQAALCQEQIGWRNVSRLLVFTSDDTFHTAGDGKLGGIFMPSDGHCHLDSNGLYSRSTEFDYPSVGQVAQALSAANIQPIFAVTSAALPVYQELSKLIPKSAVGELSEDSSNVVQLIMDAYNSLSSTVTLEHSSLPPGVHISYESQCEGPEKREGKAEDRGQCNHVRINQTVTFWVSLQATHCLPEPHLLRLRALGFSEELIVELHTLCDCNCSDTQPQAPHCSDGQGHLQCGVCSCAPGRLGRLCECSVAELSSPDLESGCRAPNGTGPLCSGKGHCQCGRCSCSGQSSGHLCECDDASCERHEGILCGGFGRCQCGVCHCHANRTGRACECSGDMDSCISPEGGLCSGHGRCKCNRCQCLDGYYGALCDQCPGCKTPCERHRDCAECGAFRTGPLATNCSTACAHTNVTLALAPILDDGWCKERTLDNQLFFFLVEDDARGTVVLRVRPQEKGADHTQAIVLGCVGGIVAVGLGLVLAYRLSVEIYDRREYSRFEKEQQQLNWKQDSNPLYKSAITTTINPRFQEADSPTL
In words: VCAM antagonistic activity (VCAM-1/α 4 β 7 binding assay): binding of RPMI-8866 cells to VCAM-1. Type of experiment: cell-based. The settings on record: fluorescent RPMI-8866 cells binding to recombinant human VCAM-1, 4 mM MnCl2, room temperature 30 minutes. The protocol: (Test Example) VCAM Antagonistic Activity (VCAM-1/α 4 β 7 Binding Assay)
The capacity of a test substance antagonistic to the binding of lymphoma cell strain RPMI-8866 of human B cells, known to express integrin α 4 β 7, to VCAM-1 was determined.
100 μl/well of a solution (500 ng/ml) of recombinant human VCAM-1 (R & D systems) solution diluted with buffer A (0.1 M NaHCO3, pH 9.6) was added to a micro titer plate having 96 wells (Nunc Maxisorp). After the incubation at 4° C. overnight, unbound VCAM-1 was removed by washing once with PBS. After completion of the washing, a buffer (buffer B) obtained by diluting Block Ace (Dainippon Pharmaceutical Co., Ltd.) with PBS to ¼ concentration was added in an amount of 150 μl/well. After the incubation at room temperature for 1 hour, buffer B was removed and the plate was washed with PBS once.
RPMI-8866 cells were incubated in Dulbecco modified Eagle medium containing 10 μg/ml of Calcein-AM (Wako Pure Chemical Industries, Ltd.) (SIGMA, hereinafter referred to as “DMEM”) at 37° C. for 30 minutes to label with fluorescence. The cells were again suspended in a binding buffer (20 mM HEPES, DMEM containing 0.1% BSA) containing 4 mM of MnCl2.
50 μl of a test substance of various concentrations obtained by the dilution with the binding buffer was added to the plate. Immediately thereafter, 50 μl (final volume: 100 μl/well) of the fluorescent RPMI-8866 cells (4×10^6 cells/ml) were added thereto, and they were incubated at room temperature for 30 minutes. After the shaking on a plate shaker (IKA MTS-4) at 800 rpm for 30 seconds, the solution was immediately removed to remove the unbound cells. The fluorescence quantity of the bound cells remaining in the wells was determined with a fluorescent plate reader (Wallac 1420 ARVO multi-label counter) (filter excitation wave length: 485 nm, emission wave length: 535 nm). The fluorescent strength thus obtained is proportional to the number of RPMI-8866 cells bound to VCAM-1 and remaining on the plate. The binding rate of each test material in various concentrations was determined while the fluorescent strength of the test material-free well was determined to be 100%. The concentration IC50 for the 50% binding inhibition was calculated.
The antagonistic activity is shown as A when IC50 is 0.8 μmol/L or less, B when IC50 is above 0.8 μmol/L and 4 μmol/L or less, C when IC50 is above 4 μmol/L and 20 μmol/L or less, and D when IC50 is above 20 μmol/L and 100 μmol/L or less.
As to `Cn1c(=O)n(-c2ccc(CC(CC(=O)c3c(F)cccc3F)C(=O)O)cc2)c(=O)c2ccccc21` (stereo not drawn) [Example 3, 4-(2,6-difluorophenyl)-2-[4-(1-methyl-2,4-dioxo-1,2,3,4-tetrahydroquinazoline-3-yl)benzyl]-4-oxobutanoic acid], the IC50 fell in the range of 0.8 to 4 µM.
On to `COC(=O)c1ccccc1NC(=O)Nc1ccc(CC(CC(=O)c2c(Cl)cccc2Cl)C(=O)O)cc1` (stereo not drawn) [Example 6, 4-(2,6-dichlorophenyl)-2-[4-[[(2-methoxycarbonylphenyl)amino]carbonylamino]benzyl]-4-oxobutanoic acid], for which the IC50 fell in the range of 20 to 100 µM.
As for `Cn1c(=O)n(-c2ccc(CC(CC(=O)c3ccccc3)C(=O)O)cc2)c(=O)c2ccccc21` (stereo not drawn) [Example 1, 4-phenyl-2-[4-(1-methyl-2,4-dioxo-1,2,3,4-tetrahydroquinazoline-3-yl)benzyl]-4-oxobutanoic acid], the figure is 20 to 100 µM; as for `Cn1c(=O)n(-c2ccc(CC(CC(O)c3c(Cl)cccc3Cl)C(=O)O)cc2)c(=O)c2ccccc21` (stereo not drawn) [Example 7, 4-(2,6-dichlorophenyl)-4-hydroxy-2-[4-(1-methyl-2,4-dioxo-1,2,3,4-tetrahydroquinazoline-3-yl)benzyl]butanoic acid], 20 to 100 µM; as for `Cn1c(=O)n(-c2ccc(/C=C(\CC(=O)c3c(Cl)cccc3Cl)C(=O)O)cc2)c(=O)c2ccccc21` [Example 5, (E)-2-[2-(2,6-dichlorophenyl)-2-oxoethyl]-3-[4-(1-methyl-2,4-dioxo-1,2,3,4-tetrahydroquinazoline-3-yl)phenyl]acrylic acid], at most 0.8 µM.
With `Cn1c(=O)n(-c2ccc(CC(CC(=O)c3c(Cl)cccc3Cl)C(=O)O)cc2)c(=O)c2ccccc21` (stereo not drawn) [Example 2, 4-(2,6-dichlorophenyl)-2-[4-(1-methyl-2,4-dioxo-1,2,3,4-tetrahydroquinazoline-3-yl)benzyl]-4-oxobutanoic acid], the IC50 was at most 0.8 µM.

The values are drawn from patent publication US7193108B2, “Phenylpropionic acid derivatives” (Ajinomoto Co., Inc., priority 2001, dated 2007).
